Laboratory results from PubChem BioAssay (NCI).
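Growth conditions: 96-well plates. Treatment: test compound, 48 hours, 5 concentrations. Analysis: linear interpolation between bracketing concentrations; unreached endpoints set to highest concentration. At the TGI there is no net growth.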

What was measured:
Assay in all cases: inhibition of tumour cell growth, NCI panel, 48 h
[1] = test system: A498 renal
[2] = test system: DU-145 prostate
[3] = test system: HCC-2998 colon
[4] = test system: HCT-116 colon
[5] = test system: HT29 colon
[6] = test system: K-562 leukemia
[7] = test system: MALME-3M melanoma
[8] = test system: MOLT-4 leukemia
[9] = test system: NCI-H460 lung
[10] = test system: SNB-19 CNS
[11] = test system: SNB-75 CNS
[12] = test system: UO-31 renal

| Compound | TGI [1] [µM] | TGI [2] [µM] | TGI [3] [µM] | TGI [4] [µM] | TGI [5] [µM] | TGI [6] [µM] | TGI [7] [µM] | TGI [8] [µM] | TGI [9] [µM] | TGI [10] [µM] | TGI [11] [µM] | TGI [12] [µM] |
| --- | --- | --- | --- | --- | --- | --- | --- | --- | --- | --- | --- | --- |
| CCN(CC)c1c(-c2c(OC(C)C)c(=O)c2=O)c(=O)n2ccsc2c1OC(C)=O | > 100 | > 100 | > 100 | > 100 | > 100 | > 100 | > 100 | > 100 | > 100 | > 100 | > 100 | > 100 |
| CC1=C[C@H](C[C@]2(C)c3c(c4c(C)cccc4oc3=O)O[C@@H]2C)OC1=O | > 100 | > 100 | > 100 | 30.3 | > 100 | > 100 | > 100 | 72.3 | > 100 | > 100 | > 100 | > 100 |
| COc1ccc(OC)c([N+](=O)[O-])c1-c1nc2sc(Cl)cn2c1/C=N/N=C(N)N | 33.7 | 42.8 | 35.6 | > 100 | 34 | 56.3 | 42.4 | 23.2 | 56.8 | 43.4 | 24.9 | 33.1 |
| C[C@]12C(=O)OC[C@H](c3ccccc3)N1C(=O)N(Cc1ccccc1)[C@@H]2CO | > 100 | > 100 | > 100 | > 100 | > 100 | > 100 | > 100 | > 100 | > 100 | > 100 | > 100 | > 100 |
| C/C(=N/NC(=S)N1CCCCCC1)c1cccc(/C(C)=N\NC(=S)N2CCCCCC2)n1 | 2.85 | 6.04 | 6.38 | 3.48 | 4.65 | 6.58 | 2.28 | 6.34 | 6.78 | 9.43 | 4.68 | 3.39 |
| COc1cc(/C=C2\CC3C4CC=C5C[C@@H](O)CC[C@]5(C)C4CC[C@]3(C)\C2=N\O)cc(OC)c1OC (stereo not given in full) | 42.6 | > 100 | 45 | 21.2 | > 100 | > 100 | 50 | > 100 | 54.9 | > 100 | > 100 | 11.1 |
| CCO/C(O)=c1/s/c(=C2/SC(=S)N(c3ccc(C)cc3)C2=O)n(-c2ccccc2)c1=N | > 100 | > 100 | > 100 | > 100 | > 100 | > 100 | > 100 | > 100 | > 100 | > 100 | 22 | > 100 |
| O=C1CC(Nc2ccccc2)c2c(Cl)sc(Cl)c21 (stereo not given) | 6.21 | 3 | 3.39 | 2.5 | 3.92 | > 100 | 2.83 | 5.18 | 24.6 | 20.5 | 4.52 | 2.57 |
| CSC(=Nc1ccccc1)c1c(C)[nH]n(-c2ccccc2)c1=O | > 100 | > 100 | > 100 | > 100 | > 100 | > 100 | > 100 | > 100 | > 100 | > 100 | > 100 | > 100 |
| COc1ccc(C2c3cc4c(cc3OC(N3CCOCC3)C2C)OCO4)cc1OC (stereo not given) | 43 | > 79.7 | > 44.8 | 50.8 | 46.8 | > 56.5 | > 100 | 77.9 | > 63.8 | 77.6 | 21.4 | > 100 |
